{"source": "patent US20240360082A1", "about": "“SUBSTITUTED PYRIDONE COMPOUNDS USEFUL TO TREAT ORTH[…]” (priority 2021, published 2024)"}
{"target": "influenza A virus minigenome (PB2, PB1, PA, NP proteins) (UniProt P04665)", "sequence (P04665 whole entry)": "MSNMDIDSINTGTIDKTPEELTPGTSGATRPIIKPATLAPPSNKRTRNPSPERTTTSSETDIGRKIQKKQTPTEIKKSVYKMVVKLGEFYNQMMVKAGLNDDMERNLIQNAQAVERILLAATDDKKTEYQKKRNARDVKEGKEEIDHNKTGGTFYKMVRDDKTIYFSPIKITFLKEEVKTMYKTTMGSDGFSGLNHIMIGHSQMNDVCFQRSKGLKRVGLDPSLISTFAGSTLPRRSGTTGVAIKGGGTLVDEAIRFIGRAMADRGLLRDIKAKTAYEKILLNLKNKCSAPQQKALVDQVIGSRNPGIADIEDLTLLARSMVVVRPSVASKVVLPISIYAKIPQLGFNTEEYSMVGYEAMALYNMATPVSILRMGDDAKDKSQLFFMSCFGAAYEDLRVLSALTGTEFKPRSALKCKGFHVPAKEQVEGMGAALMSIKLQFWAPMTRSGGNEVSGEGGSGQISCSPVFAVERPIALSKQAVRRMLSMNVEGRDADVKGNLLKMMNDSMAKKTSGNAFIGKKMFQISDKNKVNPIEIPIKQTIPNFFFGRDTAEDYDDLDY", "format": "cell-based", "settings": "read-out: RNP_ Hubei B IC50", "units": {"IC50": "µM"}}
{"smiles": "COC(C)(C)COCC1COCC(COc2ccc(-c3cc(C(N)=O)c(=O)[nH]c3C(F)(F)F)cc2)O1", "note": "(single isomer, unassigned) [Example 370, 5-(4-((6-((2-methoxy-2-methylpropoxy)methyl)-1,4-dioxan-2-yl)methoxy)phenyl)-2-oxo-6-(trifluoromethyl)-1,2-dihydropyridine-3-carboxamide]", "IC50": "5 to 10"}
{"smiles": "NC(=O)c1cc(-c2ccc(OCC3COCC(COCC(F)F)O3)cc2)c(C(F)(F)F)[nH]c1=O", "note": "(single isomer, unassigned) [Example 369, 5-(4-((6-((2,2-difluoroethoxy)methyl)-1,4-dioxan-2-yl)methoxy)phenyl)-2-oxo-6-(trifluoromethyl)-1,2-dihydropyridine-3-carboxamide]", "IC50": "5 to 10"}
{"smiles": "NC(=O)c1cc(-c2ccc(OCC3COCC(Cn4cccn4)O3)cc2)c(C(F)(F)F)[nH]c1=O", "note": "(single isomer, unassigned) [Example 377, 5-(4-((6-((1H-pyrazol-1-yl)methyl)-1,4-dioxan-2-yl)methoxy)phenyl)-2-oxo-6-(trifluoromethyl)-1,2-dihydropyridine-3-carboxamide]", "IC50": "5 to 10"}
{"smiles": "CC1(OCC2COCC(COc3ccc(-c4cc(C(N)=O)c(=O)[nH]c4C(F)(F)F)cc3)O2)COC1", "note": "(single isomer, unassigned) [Example 379]", "IC50": "5 to 10"}
{"smiles": "NC(=O)c1cc(-c2ccc(OCCN3CCOC3=O)cc2)c(C(F)(F)F)[nH]c1=O", "note": "[Example 257, 2-oxo-5-(4-(2-(2-oxooxazolidin-3-yl)ethoxy)phenyl)-6-(trifluoromethyl)-1,2-dihydropyridine-3-carboxamide]", "IC50": "25 to 50"}
{"smiles": "CC(C)(C)OC(=O)N1CCC(COc2ccc(-c3cc(C(N)=O)c(=O)[nH]c3C(F)(F)F)cc2)C1", "note": "(centres unmarked) [Example 302, Tert-butyl 3-((4-(5-carbamoyl-6-oxo-2-(trifluoromethyl)-1,6-dihydropyridin-3-yl)phenoxy)methyl)pyrrolidine-1-carboxylate]", "IC50": "25 to 50"}
{"smiles": "NC(=O)c1cc(-c2ccc(OCC3C[C@@H]4CC[C@H]3O4)cc2)c(C(F)(F)F)[nH]c1=O", "note": "(single isomer, unassigned) [Example 312, 5-(4-((7-oxabicyclo[2.2.1]heptan-2-yl)methoxy)phenyl)-2-oxo-6-(trifluoromethyl)-1,2-dihydropyridine-3-carboxamide]", "IC50": "5 to 10"}
{"smiles": "Cc1nnsc1COc1ccc(-c2cc(C(N)=O)c(=O)[nH]c2C(F)(F)F)cc1", "note": "[Example 273, 5-(4-((4-methyl-1,2,3-thiadiazol-5-yl)methoxy)phenyl)-2-oxo-6-(trifluoromethyl)-1,2-dihydropyridine-3-carboxamide]", "IC50": "10 to 25"}
{"smiles": "C[C@]1(CC#N)COC[C@@H](COc2ccc(-c3cc(C(N)=O)c(=O)[nH]c3C(F)(F)F)cc2)O1", "note": "[Example 411, 5-(4-(((2S,6S)-6-(cyanomethyl)-6-methyl-1,4-dioxan-2-yl)methoxy)phenyl)-2-oxo-6-(trifluoromethyl)-1,2-dihydropyridine-3-carboxamide]", "IC50": "5 to 10"}
{"smiles": "COC[C@@]1(CCl)COC[C@@H](COc2ccc(-c3cc(C(N)=O)c(=O)[nH]c3C(F)(F)F)cc2)O1", "note": "[Example 418, 5-(4-(((2S,6S)-6-(chloromethyl)-6-(methoxymethyl)-1,4-dioxan-2-yl)methoxy)phenyl)-2-oxo-6-(trifluoromethyl)-1,2-dihydropyridine-3-carboxamide]", "IC50": "5 to 10"}
{"smiles": "N#CCC1(COc2ccc(-c3cc(C(N)=O)c(=O)[nH]c3C(F)(F)F)cc2)COC1", "note": "[Example 229, 5-(4-((3-(cyanomethyl)oxetan-3-yl)methoxy)phenyl)-2-oxo-6-(trifluoromethyl)-1,2-dihydropyridine-3-carboxamide]", "IC50": "25 to 50"}
{"smiles": "C[C@@H]1COC[C@H](COc2ccc(-c3cc(C(N)=O)c(=O)[nH]c3C(F)(F)F)cc2)O1", "note": "[Example 328, 5-(4-(((2R,6R)-6-methyl-1,4-dioxan-2-yl)methoxy)phenyl)-2-oxo-6-(trifluoromethyl)-1,2-dihydropyridine-3-carboxamide]", "IC50": "10 to 25"}
{"smiles": "CC(C)(O)C1COCC(COc2ccc(-c3cc(C(N)=O)c(=O)[nH]c3C(F)(F)F)cc2)O1", "note": "(single isomer, unassigned) [Example 355, 5-(4-((6-(2-hydroxypropan-2-yl)-1,4-dioxan-2-yl)methoxy)phenyl)-2-oxo-6-(trifluoromethyl)-1,2-dihydropyridine-3-carboxamide]", "IC50": "5 to 10"}
{"smiles": "NC(=O)c1cc(-c2ccc(OCC3COCC(C4CCCC4)O3)cc2)c(C(F)(F)F)[nH]c1=O", "note": "(racemic) [Example 333, 5-(4-((6-cyclopentyl-1,4-dioxan-2-yl)methoxy)phenyl)-2-oxo-6-(trifluoromethyl)-1,2-dihydropyridine-3-carboxamide]", "IC50": "1 to 5"}
{"smiles": "NC(=O)c1cc(-c2ccc(OCC3COCC(=O)N3)cc2)c(C(F)(F)F)[nH]c1=O", "note": "(centres unmarked) [Example 250, 2-oxo-5-(4-((5-oxomorpholin-3-yl)methoxy)phenyl)-6-(trifluoromethyl)-1,2-dihydropyridine-3-carboxamide]", "IC50": "25 to 50"}
{"smiles": "C[C@@]1(CN2CC(F)(F)C2)COC[C@@H](COc2ccc(-c3cc(C(N)=O)c(=O)[nH]c3C(F)(F)F)cc2)O1", "note": "[Example 422, 5-(4-(((2S,6R)-6-((3,3-difluoroazetidin-1-yl)methyl)-6-methyl-1,4-dioxan-2-yl)methoxy)phenyl)-2-oxo-6-(trifluoromethyl)-1,2-dihydropyridine-3-carboxamide]", "IC50": "5 to 10"}
{"smiles": "NC(=O)c1cc(-c2ccc(OCC3COC(CF)CO3)cc2)c(C(F)(F)F)[nH]c1=O", "note": "(single isomer, unassigned) [Example 343, 5-(4-((5-(fluoromethyl)-1,4-dioxan-2-yl)methoxy)phenyl)-2-oxo-6-(trifluoromethyl)-1,2-dihydropyridine-3-carboxamide]", "IC50": "5 to 10"}
{"smiles": "COCC1OC(COc2ccc(-c3cc(C(N)=O)c(=O)[nH]c3C(F)(F)F)cc2)COC1C", "note": "(single isomer, unassigned) [Example 393, 5-(4-((6-(methoxymethyl)-5-methyl-1,4-dioxan-2-yl)methoxy)phenyl)-2-oxo-6-(trifluoromethyl)-1,2-dihydropyridine-3-carboxamide]", "IC50": "5 to 10"}
{"target": "influenza A virus minigenome (PB2, PB1, PA, NP proteins) (UniProt P04665)", "format": "cell-based", "settings": "read-out: RNP_Hubei B", "units": {"IC50": "µM"}}
{"smiles": "NC(=O)c1cc(-c2ccc(CO)cc2)c(C(F)(F)F)[nH]c1=O", "note": "[Example 2, 5-(4-(hydroxymethyl)phenyl)-2-oxo-6-(trifluoromethyl)-1,2-dihydropyridine-3-carboxamide]", "IC50": "25 to 50"}
{"smiles": "NC(=O)c1cc(-c2ccc(OCc3cccc(C(F)(F)F)c3)cc2)c(C(F)(F)F)[nH]c1=O", "note": "[Example 79, 2-oxo-6-(trifluoromethyl)-5-(4-((3-(trifluoromethyl)benzyl)oxy)phenyl)-1,2-dihydropyridine-3-carboxamide]", "IC50": "5 to 10"}
{"smiles": "NC(=O)c1cc(-c2ccc(OCC3CN(CC4CC4)CCO3)cc2)c(C(F)(F)F)[nH]c1=O", "note": "(centres unmarked) [Example 194, 5-(4-((4-(cyclopropylmethyl)morpholin-2-yl)methoxy)phenyl)-2-oxo-6-(trifluoromethyl)-1,2-dihydropyridine-3-carboxamide]", "IC50": "25 to 50"}
{"smiles": "N#Cc1cccc(COc2ccc(-c3cc(C(N)=O)c(=O)[nH]c3C(F)(F)F)cc2)c1", "note": "[Example 78, 5-(4-((3-cyanobenzyl)oxy)phenyl)-2-oxo-6-(trifluoromethyl)-1,2-dihydropyridine-3-carboxamide]", "IC50": "25 to 50"}
{"smiles": "NC(=O)c1cc(-c2ccc(OCc3cncs3)cc2)c(C(F)(F)F)[nH]c1=O", "note": "[Example 134, 2-oxo-5-(4-(thiazol-5-ylmethoxy)phenyl)-6-(trifluoromethyl)-1,2-dihydropyridine-3-carboxamide]", "IC50": "25 to 50"}
{"smiles": "NC(=O)c1cc(-c2ccc(OC(F)(F)C3COCCO3)cc2)c(C(F)(F)F)[nH]c1=O", "note": "(centres unmarked) [Example 389, 5-(4-((1,4-dioxan-2-yl)difluoromethoxy)phenyl)-2-oxo-6-(trifluoromethyl)-1,2-dihydropyridine-3-carboxamide]", "IC50": "5 to 10"}
{"smiles": "CC1(C2COCC(COc3ccc(-c4cc(C(N)=O)c(=O)[nH]c4C(F)(F)F)cc3)O2)CC1", "note": "(single isomer, unassigned) [Example 357, 5-(4-((6-(1-methylcyclopropyl)-1,4-dioxan-2-yl)methoxy)phenyl)-2-oxo-6-(trifluoromethyl)-1,2-dihydropyridine-3-carboxamide]", "IC50": "5 to 10"}
{"smiles": "NC(=O)c1cc(-c2ccc(CN3CCOCC3=O)cc2)c(C(F)(F)F)[nH]c1=O", "note": "[Example 46, 2-oxo-5-(4-((3-oxomorpholino)methyl)phenyl)-6-(trifluoromethyl)-1,2-dihydropyridine-3-carboxamide]", "IC50": "25 to 50"}
{"smiles": "CCOCC1COCC(COc2ccc(-c3cc(C(N)=O)c(=O)[nH]c3C(F)(F)F)cc2)O1", "note": "(single isomer, unassigned) [Example 360, 5-(4-((6-(ethoxymethyl)-1,4-dioxan-2-yl)methoxy)phenyl)-2-oxo-6-(trifluoromethyl)-1,2-dihydropyridine-3-carboxamide]", "IC50": "5 to 10"}
{"smiles": "NC(=O)c1cc(-c2ccc(CN3CCCOCC3)cc2)c(C(F)(F)F)[nH]c1=O", "note": "[Example 34, 5-(4-((1,4-oxazepan-4-yl)methyl)phenyl)-2-oxo-6-(trifluoromethyl)-1,2-dihydropyridine-3-carboxamide]", "IC50": "25 to 50"}
{"smiles": "CC(=O)N1CCC(COc2ccc(-c3cc(C(N)=O)c(=O)[nH]c3C(F)(F)F)cc2)CC1", "note": "[Example 55, 5-(4-((1-acetylpiperidin-4-yl)methoxy)phenyl)-2-oxo-6-(trifluoromethyl)-1,2-dihydropyridine-3-carboxamide]", "IC50": "25 to 50"}
{"smiles": "CCCNc1cccc(COc2ccc(-c3cc(C(N)=O)c(=O)[nH]c3C(F)(F)F)cc2)c1", "note": "[Example 66, 2-oxo-5-(4-((3-(propylamino)benzyl)oxy)phenyl)-6-(trifluoromethyl)-1,2-dihydropyridine-3-carboxamide]", "IC50": "0.1 to 1"}
{"smiles": "NC(=O)c1cc(-c2ccc(O)cc2)c(C(F)(F)F)[nH]c1=O", "note": "[Example 3, 5-(4-hydroxyphenyl)-2-oxo-6-(trifluoromethyl)-1,2-dihydropyridine-3-carboxamide]", "IC50": "25 to 50"}
{"smiles": "COC1CCOC(COc2ccc(-c3cc(C(N)=O)c(=O)[nH]c3C(F)(F)F)cc2)C1", "note": "(single isomer, unassigned) [Example 202, 5-(4-((4-methoxytetrahydro-2H-pyran-2-yl)methoxy)phenyl)-2-oxo-6-(trifluoromethyl)-1,2-dihydropyridine-3-carboxamide]", "IC50": "10 to 25"}
